In the NIST ThermoML archive (doi:10.1016/j.jct.2015.09.006):
Numbers after ± are expanded uncertainties.

Test: wn = mass fraction of the nth substance listed
Conditions: 323.15 K, 101.3 kPa, Liquid, Vibrating tube method

## [Ca+2].[Cl-].[Cl-] [calcium chloride] + O
w1 = 0.566
  mass density: 1575.9 ± 24 kg/m3

## O=[PH2][O-].[Na+] [sodium phosphinate] + O
w1 = 0.5786
  mass density: 1415.2 ± 24 kg/m3

## O=[PH2][O-].O=[PH2][O-].[Ca+2] [calcium hypophosphite] + O
w1 = 0.1326
  mass density: 1073.2 ± 24 kg/m3
